Assay results published in US4585866A, “Treatment of migraine with substituted tropyl benzoate derivatives” (Merrell Dow Pharmaceuticals Inc., priority 1984, dated 1986).

Columns and labels:
guinea-pig taenia caeci = assay: Inhibition of standard response to calcium, guinea-pig taenia caeci; assay type: cell-based; settings: Cavia porcellus; guinea-pig taenia caeci in potassium-depolarized Tyrode solution, agonist calcium; read-out: Concentration to inhibit standard response to stimulants by 50% (IC50)
Source text: (§1) A selection of classical in vitro pharmacological test preparations (rat uterus, rat fundus, guinea-pig ileum, guinea-pig taenia caeci) were set up according to well-established procedures (see "Pharmacological Experiments on Isolated Preparations" Staff of the Department of Pharmacology, University of Edinburgh, Livingstone, Edinburgh 1970). Various spasmogens were used to elicit contraction of these tissues though mechanisms other than the 5-HT "M" receptor. The concentrations of tropyl 3,5-dimethoxybenzoate (A), tropyl 3,5-dimethylbenzoate (B) and tropyl 3,5-dichlorobenzoate (C) which reduced the effects of a submaximal dose of agonist by 50% were determined (IC50). The results are set forth in Table VI below in which the compounds are identified by the reference letters used above.
*In potassiumdepolarized Tyrode solution

LD50 in the rat = settings: in vivo, iv
guinea-pig ileum = assay: Inhibition of standard response to carbachol, guinea-pig ileum; assay type: cell-based; settings: Cavia porcellus, carbachol agonist instead of acetylcholine, read-out: Concentration to inhibit standard response to stimulants by 50% (IC50)
Source text: as §1
**Carbachol agonist instead of acetylcholine

LD50 in the mouse = assay type: in vivo; settings: in vivo, mouse
mouse = assay: LD50 in the mouse; assay type: in vivo; settings: as shown by LD50 values in the mouse and rat
[1] = test system: Von Bezold-Jarisch Reflex (5-HT M-receptor); assay: Antagonism of the Von Bezold-Jarisch reflex evoked by 5-HT in the anaesthetized rat; assay type: in vivo, rat (male Sprague-Dawley); settings: comparison in words, i.v.
Source text: The activity of these compounds against 5-HT can be assessed in vivo by measurement of the effect of the compound on the Von Bezold-Jarisch Reflex induced by 5-HT injected intravenously into the rat (A. S. Paintal, Physiol. Rev. 53, 159-227, 1973). The transient caridac slowing arises from an increased afferent vagus activity arising from stimulation by 5-HT of sensory afferent fibres in and around the heart (see Example 3).
Antagonism of the Von Bezold-Jarisch reflex evoked by 5-HT in the anaesthetized rat was measured for tropyl 3,5-dimethoxybenzoate (A), tropyl 3,5-dimethylbenzoate (B) and tropyl 3,5-dichlorobenzoate (C) using the following method.
Male Sprague-Dawley rats weighing 250-300 g are anaesthetized with urethane, 1.25 g/kg injected intraperitoneally and set up for recording blood pressure and heart rate as described in J. R. Fozard et al, J. Cardiovas. Pharmacol. 2, 229-245 (1980). A submaximal dose of 5-HT ([…]) is given repeatedly into the cannulated jugular vein and changes in heart rate are quantified. Antagonists are given intravenously and the doses required to just inhibit the response to 5-HT (threshold dose) or to inhibit the response to 5-HT by 50% (ED50) are determined.

[2] = target: T1, rabbit heart (5-HT M receptor) (Oryctolagus cuniculus, UniProt A0A5F9C9J3); assay: Inhibition of standard response to 5-HT, rabbit heart; assay type: cell-based; settings: rabbit heart, agonist 5-HT; read-out: Concentration to inhibit standard response to stimulants by 50% (IC50)
T1 construct: RABBIT HEART; from tissue; host or cells: rabbit heart
T1 sequence (A0A5F9C9J3 1-494): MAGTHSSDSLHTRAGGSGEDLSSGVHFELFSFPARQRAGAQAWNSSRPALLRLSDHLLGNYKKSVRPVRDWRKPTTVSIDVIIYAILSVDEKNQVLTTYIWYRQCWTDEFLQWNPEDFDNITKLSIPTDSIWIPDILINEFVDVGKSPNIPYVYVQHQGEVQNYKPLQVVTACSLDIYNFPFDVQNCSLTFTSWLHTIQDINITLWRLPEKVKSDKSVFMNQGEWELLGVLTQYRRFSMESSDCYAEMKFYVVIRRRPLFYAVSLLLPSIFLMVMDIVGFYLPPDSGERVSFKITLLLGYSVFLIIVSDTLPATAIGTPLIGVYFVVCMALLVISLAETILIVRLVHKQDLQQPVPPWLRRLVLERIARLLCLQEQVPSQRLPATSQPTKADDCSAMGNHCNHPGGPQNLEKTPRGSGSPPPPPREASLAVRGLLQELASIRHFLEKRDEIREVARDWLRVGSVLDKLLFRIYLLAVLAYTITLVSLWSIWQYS
Protocol: (§2) The activity of the compounds against 5-HT can be assessed by determining their pA2 values in the isolated rabbit heart as described by J. R. Fozard et al, Eur. J. Pharmacol., 59, 195-210 (1979). In the method described, the molar concentration of antagonist which reduces the effects of twice the ED50 of 5-HT to that of the ED50 in the absence of antagonist is determined. The pA2 value is the negative logarithm of said molar concentrations.
as §1

5-HT M-receptor [3] = target: T2, 5-HT M-receptor (Oryctolagus cuniculus, UniProt A0A5F9C9J3); assay: pA2 against 5-HT in isolated rabbit heart; assay type: cell-based; settings: isolated rabbit heart; negative log of molar concentration of antagonist reducing effect of twice the ED50 of 5-HT to that of the ED50; read-out: pA2 5-HT (converted)
T2 construct: determining their pA2 values in the isolated rabbit heart; from tissue; host or cells: isolated rabbit heart (receptor on the cardiac neurones)
T2 sequence (A0A5F9C9J3 1-494): T1 sequence (A0A5F9C9J3 1-494)
Protocol: as §2

acute migraine attack = settings: slow intravenous injection, 10 mg; J. B. Hughes, Med. J. Aust. 1977; cited from earlier work
5-HT M-receptor [4] = target: T2, 5-HT M-receptor; settings: cited from earlier work

SMILES	IC50 (guinea-pig taenia caeci) [µM]	LD50 (LD50 in the rat) [mg/kg]	IC50 (guinea-pig ileum) [µM]	LD50 (LD50 in the mouse; ip) [mg/kg]	LD50 (LD50 in the mouse; iv) [mg/kg]	LD50 (LD50 in the mouse; oral) [mg/kg]	toxicity in words (mouse)	potency relative to metoclopramide [1]	IC50 [2] [µM]	Kb (5-HT M-receptor [3]) [µM]	relief of acute migraine attack (acute migraine attack)	potency as 5-HT M-receptor antagonist (5-HT M-receptor [4]; literature)	pA2 value (5-HT) (5-HT M-receptor [4]; reported by J. R. Fozard et al, Eur. J. Pharmacol. 1979 / 1978)
Cc1cc(C)cc(C(=O)O[C@H]2C[C@H]3CC[C@@H](C2)N3C)c1 [tropyl 3,5-dimethylbenzoate]	34.2	9	9.59	47	17	116	relatively non-toxic	many times more potent than metoclopramide	0.00103	0.001	–	–	–
CCN(CC)CCNC(=O)c1cc(Cl)c(N)cc1OC [metoclopramide]	–	–	–	–	–	–	–	–	–	–	immediate relief of acute migraine attack	potent 5-HT M-receptor antagonist	7.2
